Measured values as given in article PMC10281575, “PfCRT mutations conferring piperaquine resistance in falciparum malaria shape the kinetics of quinoline drug binding and transport” (PLOS Pathogens, 2023).
Positions count from the first letter of the chain named. Values joined by “and” are separate entries in the source; they are usually repeats but may differ in a detail not shown here. Identical values can stand only once.

Key:
[1] = target: T1, PfCRT^Dd2_H97Y (Plasmodium falciparum, UniProt Q8IBZ9, A220S/H97Y/I356T/K76T/M74I/N326S/N75E/Q271E/R371I); assay: Radiolabeled drug uptake in X. laevis oocytes expressing PfCRT^Dd2_H97Y; format: cell-based
T1 construct: expressed in transfected cells; host or cells: Xenopus laevis oocytes injected with in vitro transcribed RNA (pSP64T)
T1 sequence (Q8IBZ9 1-424 M74I/N75E/K76T/H97Y/A220S/Q271E/N326S/I356T/R371I): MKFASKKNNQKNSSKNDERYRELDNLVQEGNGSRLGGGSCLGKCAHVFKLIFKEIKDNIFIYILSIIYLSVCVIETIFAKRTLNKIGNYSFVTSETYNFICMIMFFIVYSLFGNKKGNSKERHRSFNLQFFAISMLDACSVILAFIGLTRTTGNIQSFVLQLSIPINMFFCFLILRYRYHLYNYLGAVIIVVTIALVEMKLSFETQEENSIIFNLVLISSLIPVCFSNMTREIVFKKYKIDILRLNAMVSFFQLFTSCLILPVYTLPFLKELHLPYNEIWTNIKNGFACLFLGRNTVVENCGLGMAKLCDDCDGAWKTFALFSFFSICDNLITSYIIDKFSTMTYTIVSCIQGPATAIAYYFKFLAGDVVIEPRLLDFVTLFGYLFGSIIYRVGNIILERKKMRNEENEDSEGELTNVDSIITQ
Excerpt: A codon-optimized coding sequence of the Dd2 isoform of PfCRT (PfCRT^Dd2) was subcloned into the pSP64T expression vector [21]. To generate the necessary mutations to introduce the amino acid substitutions H97Y, F145I, M343L or G353V into the pfcrt sequence, the overlap extension method was used. A region from the 5’-untranslated Xenopus β-globin sequence to the respective 3’ region, containing the full length pfcrt coding sequence, was amplified using the following primer pairs: for the H97Y mutation, numbers 1/4 and 2/3; for the F145I mutation, numbers 1/6 and 2/5; for the M343L mutation, numbers 1/8 and 2/7; and for the G353V mutation, numbers 1/10 and 2/9 (for primers, see S2 Table). Both PCR products were used as template for amplification of the final product using primers number 1/2. The resulting fragment was cloned into the pSP64T expression vector, and the presence of the desired mutation was confirmed by sequencing.
(§1) Adult female X. laevis frogs (purchased from NASCO) were anesthetized by submersion in a solution of 0.3% (w/v) 3-amino benzoate methanesulfonate for 15 min. Sections of the ovary were surgically removed and placed in Ca^2+-free ND96 buffer supplemented with 0.1% collagenase D (w/v; Roche), 0.5% BSA (w/v) and 9 mM Na2HPO4 at 18°C for 14–16 h while gently shaking. The oocytes were then washed several times with ND96 buffer (5 mM HEPES, pH 7.5, 96 mM NaCl, 2 mM KCl, 1.8 mM CaCl2, 1 mM MgCl2), supplemented with […] gentamycin. Healthy-looking stage V-VI oocytes were manually selected and randomly grouped for injection. A codon-optimized coding sequence of PfCRT was subcloned into the pSP64T expression vector and subsequently linearized using the restriction endonuclease BamHI or SalI (New England Biolabs GmbH). RNA for injection was transcribed in vitro using the mMESSAGE mMACHINE SP6 Transcription kit (Ambion), diluted with nuclease-free water to a final concentration of 0.6 μg/μL and stored at -80°C. RNA was injected using precision-bore glass capillary tubes (3.5-inch glass capillaries; Drummond Scientific Co.), which were pulled on a vertical puller (P-87 Flaming/Brown micropipette puller, Sutter Instrument Co.) and graduated. The micropipettes were connected to a microinjector (Nanoject II Auto-Nanoliter Injector, Drummond Scientific Co.). Injection was conducted under stereomicroscopic control. 50 nL of nuclease-free water alone (control oocytes) or 50 nL of nuclease-free water containing 30 ng of RNA was injected per oocyte. Injected oocytes were kept for 72 h at 18°C in ND96 buffer with two daily buffer changes before being used for further experiments.
(§2) Drug transport assays were performed as previously described. Briefly, measurements of radiolabeled drug uptake were made over 1 h, unless otherwise specified. […] Where specified, one or more unlabeled drugs were also present at the indicated concentrations. […] The uptake assays were terminated by removing the oocytes from the reaction medium and washing them three times with 2 mL of ice-cold ND96 buffer. Each oocyte was transferred to a separate scintillation vial and lysed by the addition of 200 μL of a 5% SDS solution. The radioactivity in the sample was measured using a liquid scintillation analyser Tri-Carb 4910 TR (PerkinElmer). Water-injected oocytes were analyzed in parallel as a negative control. The buffer from each condition was measured in duplicate in parallel to each experiment to transform counts per minute into pmol of drug. Drug uptake attributable to PfCRT was determined by subtracting the background uptake from water-injected oocytes from that of PfCRT-expressing oocytes. In all cases, at least three independent experiments were performed on oocytes from different frogs, and for each condition in an experiment, measurements were made from 10 oocytes per treatment.

[2] = test system: water-injected oocytes; assay: Radiolabeled drug uptake in water-injected control oocytes (intrinsic drug accumulation); format: cell-based, Xenopus laevis; conditions: 50 μM CQ, pH 6.0; one value per biological replicate
Protocol: as §1, §2

[3] = target: T2, PfCRT^Dd2_H97Y_F145I (Plasmodium falciparum, UniProt Q8IBZ9, A220S/F145I/H97Y/I356T/K76T/M74I/N326S/N75E/Q271E/R371I); assay: Radiolabeled drug uptake in X. laevis oocytes expressing PfCRT^Dd2_H97Y_F145I; format: cell-based; conditions: for PfCRTDd2_H97Y_F145I-mediated CQ transport: individual replicates (Fig 11)
T2 construct: expressed in transfected cells; host or cells: Xenopus laevis oocytes injected with in vitro transcribed RNA
T2 sequence (Q8IBZ9 1-424 M74I/N75E/K76T/H97Y/F145I/A220S/Q271E/N326S/I356T/R371I): T1 sequence (Q8IBZ9 1-424 M74I/N75E/K76T/H97Y/A220S/Q271E/N326S/I356T/R371I) with F145I
Protocol: as §1, §2

[4] = Hill equation fit, 10-500 μM drug, pH 6

SMILES: CCN(CC)CCCC(C)Nc1ccnc2cc(Cl)ccc12 (centres unmarked) [CQ, chloroquine]
- PfCRTDd2_H97Y-mediated CQ uptake at 10 µM CQ ([1]; 10 µM CQ, single replicates): 0.94 pmol oocyte-1 h-1 and 1.60 pmol oocyte-1 h-1 and 1.36 pmol oocyte-1 h-1
- PfCRTDd2_H97Y-mediated CQ uptake at 50 µM CQ ([1]; 50 µM CQ, single replicates): 8.24 pmol oocyte-1 h-1 and 3.56 pmol oocyte-1 h-1 and 5.41 pmol oocyte-1 h-1 and 4.92 pmol oocyte-1 h-1 and 5.15 pmol oocyte-1 h-1
- PfCRTDd2_H97Y-mediated CQ uptake at 100 µM CQ ([1]; 100 µM CQ, single replicates): 9.39 pmol oocyte-1 h-1 and 7.90 pmol oocyte-1 h-1 and 6.68 pmol oocyte-1 h-1
- PfCRTDd2_H97Y-mediated CQ uptake at 300 µM CQ ([1]; 300 µM CQ, single replicates): 13.78 pmol oocyte-1 h-1 and 16.15 pmol oocyte-1 h-1 and 14.38 pmol oocyte-1 h-1
- PfCRTDd2_H97Y-mediated CQ uptake at 500 µM CQ ([1]; 500 µM CQ, single replicates): 17.49 pmol oocyte-1 h-1 and 19.24 pmol oocyte-1 h-1 and 15.35 pmol oocyte-1 h-1
- Vmax, maximal velocity of drug transport ([1]; Michaelis-Menten fit, 10-500 μM drug, pH 6): 24 ± 1 pmol oocyte^-1 h^-1
- Km ([1]; Michaelis-Menten fit, 10-500 μM drug, pH 6, read-out: KM, Michaelis constant): 184 ± 16 µM
- water-injected uptake of CQ at 10 min [2]: 3.00 pmol oocyte-1 and 2.99 pmol oocyte-1 and 4.09 pmol oocyte-1 and 3.71 pmol oocyte-1 and 0.95 pmol oocyte-1 and 4.05 pmol oocyte-1 and 0.39 pmol oocyte-1 and 2.80 pmol oocyte-1 and 2.76 pmol oocyte-1
- water-injected uptake of CQ at 30 min [2]: 5.48 pmol oocyte-1 and 5.44 pmol oocyte-1 and 5.22 pmol oocyte-1 and 9.34 pmol oocyte-1 and 5.41 pmol oocyte-1 and 1.36 pmol oocyte-1 and 4.88 pmol oocyte-1 and 5.49 pmol oocyte-1 and 4.65 pmol oocyte-1
- water-injected uptake of CQ at 60 min [2]: 10.84 pmol oocyte-1 and 8.71 pmol oocyte-1 and 14.37 pmol oocyte-1 and 7.57 pmol oocyte-1 and 2.74 pmol oocyte-1 and 9.73 pmol oocyte-1 and 10.77 pmol oocyte-1 and 12.13 pmol oocyte-1 and 9.43 pmol oocyte-1
- water-injected uptake of CQ at 90 min [2]: 10.67 pmol oocyte-1 and 8.60 pmol oocyte-1 and 15.53 pmol oocyte-1 and 9.13 pmol oocyte-1 and 10.08 pmol oocyte-1 and 13.10 pmol oocyte-1 and 8.74 pmol oocyte-1
- water-injected uptake of CQ at 120 min [2]: 15.57 pmol oocyte-1 and 11.64 pmol oocyte-1 and 20.59 pmol oocyte-1 and 11.40 pmol oocyte-1 and 13.60 pmol oocyte-1 and 13.51 pmol oocyte-1 and 14.13 pmol oocyte-1 and 14.32 pmol oocyte-1
- water-injected uptake of CQ at 180 min [2]: 15.62 pmol oocyte-1 and 20.71 pmol oocyte-1 and 19.14 pmol oocyte-1 and 17.36 pmol oocyte-1 and 14.82 pmol oocyte-1 and 15.40 pmol oocyte-1 and 19.29 pmol oocyte-1
- PfCRTDd2_H97Y_F145I-mediated CQ transport ([3]; 10 µM CQ): 0.56 pmol oocyte-1 h-1 and 0.57 pmol oocyte-1 h-1 and 0.94 pmol oocyte-1 h-1
- PfCRTDd2_H97Y_F145I-mediated CQ transport ([3]; 50 µM CQ): 1.87 pmol oocyte-1 h-1 and 2.38 pmol oocyte-1 h-1 and 2.20 pmol oocyte-1 h-1 and 4.15 pmol oocyte-1 h-1
- PfCRTDd2_H97Y_F145I-mediated CQ transport ([3]; 100 µM CQ): 6.01 pmol oocyte-1 h-1 and 3.76 pmol oocyte-1 h-1 and 7.81 pmol oocyte-1 h-1 and 7.54 pmol oocyte-1 h-1 and 7.03 pmol oocyte-1 h-1
- PfCRTDd2_H97Y_F145I-mediated CQ transport ([3]; 200 µM CQ): 12.93 pmol oocyte-1 h-1 and 22.31 pmol oocyte-1 h-1 and 9.72 pmol oocyte-1 h-1 and 19.44 pmol oocyte-1 h-1 and 15.86 pmol oocyte-1 h-1
- PfCRTDd2_H97Y_F145I-mediated CQ transport ([3]; 300 µM CQ): 22.26 pmol oocyte-1 h-1 and 28.62 pmol oocyte-1 h-1 and 11.32 pmol oocyte-1 h-1 and 17.61 pmol oocyte-1 h-1
- PfCRTDd2_H97Y_F145I-mediated CQ transport ([3]; 400 µM CQ): 20.46 pmol oocyte-1 h-1 and 24.94 pmol oocyte-1 h-1 and 27.66 pmol oocyte-1 h-1
- PfCRTDd2_H97Y_F145I-mediated CQ transport ([3]; 500 µM CQ): 23.29 pmol oocyte-1 h-1 and 35.24 pmol oocyte-1 h-1 and 26.54 pmol oocyte-1 h-1 and 24.00 pmol oocyte-1 h-1
- Hc, Hill coefficient [3, 4]: 1.6 ± 0.2
- Vmax, maximal velocity of drug transport [3, 4]: 35 ± 1 pmol oocyte^-1 h^-1 and 35 ± 4 pmol oocyte^-1 h^-1
- Km ([3]; Hill equation fit, 10-500 μM drug, pH 6, read-out: KM, Michaelis constant): 240 ± 40 µM
